# According to PubChem BioAssay (NCI):
#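 Interpolation was linear, between the two tested concentrations surrounding the appropriate level; five concentrations were tested over 48 hours in 96-well plates. GI50 marks 50% less growth. TGI denotes the concentration required for complete inhibition of growth.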
# Key:
# Assay in all cases: inhibition of tumour cell growth, NCI panel, 48 h
# HS 578T breast = system: HS 578T breast
# SW-620 colon = system: SW-620 colon
# NCI-H522 lung = system: NCI-H522 lung
# MALME-3M melanoma = system: MALME-3M melanoma
# A549 NSCLC = system: A549 NSCLC
# HT29 colon = system: HT29 colon
# COLO 205 colon = system: COLO 205 colon
# HL-60(TB) leukemia = system: HL-60(TB) leukemia
# SNB-75 CNS = system: SNB-75 CNS
# HCC-2998 colon = system: HCC-2998 colon
# SK-MEL-5 melanoma = system: SK-MEL-5 melanoma
# SF-268 CNS = system: SF-268 CNS
# OVCAR-3 ovarian = system: OVCAR-3 ovarian
# OVCAR-8 ovarian = system: OVCAR-8 ovarian
# OVCAR-5 ovarian = system: OVCAR-5 ovarian
# MDA-MB-231 breast = system: MDA-MB-231 breast
# SF-539 CNS = system: SF-539 CNS
# HOP-92 NSCLC = system: HOP-92 NSCLC
# MDA-MB-468 breast = system: MDA-MB-468 breast
# HCT-116 colon = system: HCT-116 colon
# NCI-H226 lung = system: NCI-H226 lung
# MCF7 breast = system: MCF7 breast
# NCI-H23 lung = system: NCI-H23 lung
# SK-MEL-28 melanoma = system: SK-MEL-28 melanoma
# NCI/ADR-RES ovarian = system: NCI/ADR-RES ovarian
# A498 renal = system: A498 renal
# MOLT-4 leukemia = system: MOLT-4 leukemia
# SNB-19 CNS = system: SNB-19 CNS
# UACC-62 melanoma = system: UACC-62 melanoma
compound,measurement,setting,value
O=C(NO)c1ccc(-c2nc3ccc4[nH]ncc4c3c3c2CCCC3)cc1,GI50,HS 578T breast,191 nM
same,TGI,HS 578T breast,1300 nM
same,GI50,SW-620 colon,245 nM
same,TGI,SW-620 colon,> 77.9 µM
same,GI50,NCI-H522 lung,154 nM
same,TGI,NCI-H522 lung,990 nM
same,GI50,MALME-3M melanoma,513 nM
same,TGI,MALME-3M melanoma,1730 nM
same,GI50,A549 NSCLC,671 nM
same,TGI,A549 NSCLC,> 100 µM
same,GI50,HT29 colon,455 nM
same,TGI,HT29 colon,9.84 µM
same,GI50,COLO 205 colon,255 nM
same,TGI,COLO 205 colon,1480 nM
same,GI50,HL-60(TB) leukemia,339 nM
same,TGI,HL-60(TB) leukemia,2980 nM
same,GI50,SNB-75 CNS,207 nM
same,TGI,SNB-75 CNS,875 nM
same,GI50,HCC-2998 colon,300 nM
same,TGI,HCC-2998 colon,1390 nM
same,GI50,SK-MEL-5 melanoma,240 nM
same,TGI,SK-MEL-5 melanoma,1020 nM
same,GI50,SF-268 CNS,298 nM
same,TGI,SF-268 CNS,1600 nM
same,GI50,OVCAR-3 ovarian,377 nM
same,TGI,OVCAR-3 ovarian,11 µM
same,GI50,OVCAR-8 ovarian,300 nM
same,TGI,OVCAR-8 ovarian,13.5 µM
same,GI50,OVCAR-5 ovarian,479 nM
same,TGI,OVCAR-5 ovarian,3.93 µM
same,GI50,MDA-MB-231 breast,350 nM
same,TGI,MDA-MB-231 breast,1490 nM
same,GI50,SF-539 CNS,168 nM
same,TGI,SF-539 CNS,455 nM
same,GI50,HOP-92 NSCLC,426 nM
same,TGI,HOP-92 NSCLC,6.11 µM
same,GI50,MDA-MB-468 breast,97.9 nM
same,TGI,MDA-MB-468 breast,279 nM
same,GI50,HCT-116 colon,119 nM
same,TGI,HCT-116 colon,33.8 µM
same,GI50,NCI-H226 lung,296 nM
same,TGI,NCI-H226 lung,3.09 µM
same,GI50,MCF7 breast,344 nM
same,TGI,MCF7 breast,3.57 µM
same,GI50,NCI-H23 lung,316 nM
same,TGI,NCI-H23 lung,1180 nM
same,GI50,SK-MEL-28 melanoma,299 nM
same,TGI,SK-MEL-28 melanoma,1030 nM
same,GI50,NCI/ADR-RES ovarian,1030 nM
same,TGI,NCI/ADR-RES ovarian,21 µM
same,GI50,A498 renal,254 nM
same,TGI,A498 renal,2640 nM
same,GI50,MOLT-4 leukemia,244 nM
same,TGI,MOLT-4 leukemia,942 nM
same,GI50,SNB-19 CNS,288 nM
same,TGI,SNB-19 CNS,1740 nM
same,GI50,UACC-62 melanoma,237 nM
same,TGI,UACC-62 melanoma,1450 nM
